From US10716827B2 (priority 2015, dated 2020) come the findings set out here.

In this experiment the target is GLP-1R (Homo sapiens, UniProt P43220).
Chain of GLP-1R (P43220 24-463, species assumed): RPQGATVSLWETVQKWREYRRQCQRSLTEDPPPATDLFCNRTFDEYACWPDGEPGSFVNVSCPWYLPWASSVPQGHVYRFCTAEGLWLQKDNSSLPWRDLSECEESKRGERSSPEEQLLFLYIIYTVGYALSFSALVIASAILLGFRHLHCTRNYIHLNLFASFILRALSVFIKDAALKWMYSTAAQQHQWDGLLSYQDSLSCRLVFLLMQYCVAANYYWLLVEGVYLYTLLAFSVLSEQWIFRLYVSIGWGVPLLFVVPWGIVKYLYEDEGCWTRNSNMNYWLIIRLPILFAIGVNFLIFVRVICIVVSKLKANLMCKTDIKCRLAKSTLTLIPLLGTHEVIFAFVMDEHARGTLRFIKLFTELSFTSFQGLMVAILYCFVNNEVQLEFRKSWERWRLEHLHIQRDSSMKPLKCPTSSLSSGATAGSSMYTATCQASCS

In the case of “HGEGTFTSDLS(Kazido)QMEEEAVRLFIENWLKNGGPSSGAPSSGAPPPS [compound 1]”, the “% Change in FRET at 100 nM” value (100 nM, undigested) is listed as −12 ± 0.01%. For the same substance, for the setting “azido modification at K12”, the “potency compared to unmodified Ex-4” value was “no significant reduction in potency”.
